# Data reported in US8562949B2, “Radiolabeled dihydrotetrabenazine derivatives and their use as imaging agents” (The Trustees of the University of Pennsylvania, priority 2006, dated 2013).
# pKd, pKi: −log10 of the molar value. Values joined by “and” are separate entries in the source; they are usually repeats but may differ in a detail not shown here. Equal values may be shown once.
# Columns and labels:
# VMAT2 [1] = target: T1, VMAT2 (Mus musculus, UniProt Q8BRU6); experiment: In vitro autoradiography of mouse brain sections; format: binding
# VMAT2 [2] = target: VMAT2 (Rattus norvegicus, UniProt Q01827); experiment: Competition for [3H](±)TBZ binding in rat striatal homogenates; parameters: The basal forebrain regions of rat and mouse brains were then dissected; from tissue; host or cells: rat striatum / basal forebrain homogenate; conditions: [3H](±)TBZ 1.0-1.5 nM, Kd […] used for calculation
# [3] = Uptake in diabetic mice (FIG. 6); format: in vivo
# monoamine transporter = monoamine transporter (UniProt Q27963); conditions: membranes of chromaffin granules and brain tissue samples; cited from earlier work
# [4] = Partition coefficient 1-octanol/phosphate buffer; format: physicochemical; conditions: pH 7.4, 1-octanol and phosphate buffer
# Description: Partition coefficients were measured by mixing the [^18F]tracer with 3 g each of 1-octanol and buffer (0.1 M phosphate, pH 7.4) in a test tube. The test tube was vortexed for 3 min at room temperature, followed by centrifugation for 5 min. Two weighed samples (0.5 g each) from the 1-octanol and buffer layers were counted in a well counter. The partition coefficient was determined by calculating the ratio of cpm/g of 1-octanol to that of buffer. Samples from the 1-octanol layer were re-partitioned until consistent partitions of coefficient values were obtained. Values are the mean±SEM of three independent experiments, each in duplicates.
# [5] = Biodistribution of [18F]6a and [18F]6b in normal mice (iv injection); format: in vivo, ICR mice
# Description: While under isoflurane anesthesia, 0.15 mL of a 0.1% bovine serum albumin solution containing [^18F]tracers (10-20 μCi) were injected directly into the tail vein of ICR mice (22-25 g, male) The mice (n=3 for each time point) were sacrificed by cervical dislocation at indicated time points post injection. The organs of interest were removed and weighed, and the radioactivity was counted with an automatic gamma counter. The percentage dose per organ was calculated by a comparison of the tissue counts to suitably diluted aliquots of the injected material. Total activities of blood were calculated under the assumption that they were 7% of the total body weight. The % dose/g of samples was calculated by comparing the sample counts with the count of the diluted initial dose.
# VMAT2 [6] = target: T1, VMAT2; experiment: Saturation binding of 18F ligands in mouse striatal homogenates; parameters: The basal forebrain regions of rat and mouse brains were then dissected; from tissue; host or cells: mouse striatal homogenate; mouse brain coronal sections; conditions: estimated based on S.A.=2000 Ci/mmole
# Description: The basal forebrain regions of rat and mouse brains were then dissected. The tissue homogenates were prepared in 50 mM Hepes, pH 7.5 and 0.3 M sucrose. The specific binding of ^3H or ^18F ligands were determined following the procedures described (Scherman D, Raisman R, Ploska A, Agid Y., [^3H]Dihydrotetrabenazine, a new in vitro monoaminergic probe for human brain, J. Neurochem., 1988:50:1131-36). Total volume of reaction for the assay was 0.2 ml. […] In saturation experiments, increasing concentrations of labeled ligand […] in 50 μl buffer were incubated with 100 μl of homogenates (100-250 μg). Incubation was carried out routinely at room temperature for 90 min. The samples were then filtered through glass fiber filters No. 25 (Schleicher and Schuell, Keene, N.H.) and the bound radioactivity was determined for ^18F in a gamma counter (Packard 5000) with 70% efficiency. Filters containing bound ^3H ligand were dissolved in 7 ml Ecolite(+) overnight and the radioactivity was counted next day in the scintillation counter (Beckman) with 65% counting efficiency. […] Nonspecific binding was determined in the presence of 10 μM tetrabenazine. Both saturation and competition experiments were analyzed using the nonlinear least-square curve fitting program LIGAND. […]
# T1 sequence (Q8BRU6 whole entry): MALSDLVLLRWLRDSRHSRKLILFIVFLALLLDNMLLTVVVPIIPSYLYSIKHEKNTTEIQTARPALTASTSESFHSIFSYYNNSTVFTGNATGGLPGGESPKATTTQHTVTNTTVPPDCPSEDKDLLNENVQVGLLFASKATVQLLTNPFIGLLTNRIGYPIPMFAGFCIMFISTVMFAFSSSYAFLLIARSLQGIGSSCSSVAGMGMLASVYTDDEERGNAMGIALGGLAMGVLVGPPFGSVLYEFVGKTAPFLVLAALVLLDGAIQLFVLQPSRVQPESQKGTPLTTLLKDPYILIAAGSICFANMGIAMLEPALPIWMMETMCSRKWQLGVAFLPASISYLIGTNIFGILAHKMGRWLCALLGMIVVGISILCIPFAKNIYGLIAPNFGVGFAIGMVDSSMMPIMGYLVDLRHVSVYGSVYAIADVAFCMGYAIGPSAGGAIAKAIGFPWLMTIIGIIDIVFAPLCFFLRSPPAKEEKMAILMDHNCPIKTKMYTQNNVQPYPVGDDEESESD
# Chain of VMAT2 (Rattus norvegicus, UniProt Q01827) (Q01827 whole entry): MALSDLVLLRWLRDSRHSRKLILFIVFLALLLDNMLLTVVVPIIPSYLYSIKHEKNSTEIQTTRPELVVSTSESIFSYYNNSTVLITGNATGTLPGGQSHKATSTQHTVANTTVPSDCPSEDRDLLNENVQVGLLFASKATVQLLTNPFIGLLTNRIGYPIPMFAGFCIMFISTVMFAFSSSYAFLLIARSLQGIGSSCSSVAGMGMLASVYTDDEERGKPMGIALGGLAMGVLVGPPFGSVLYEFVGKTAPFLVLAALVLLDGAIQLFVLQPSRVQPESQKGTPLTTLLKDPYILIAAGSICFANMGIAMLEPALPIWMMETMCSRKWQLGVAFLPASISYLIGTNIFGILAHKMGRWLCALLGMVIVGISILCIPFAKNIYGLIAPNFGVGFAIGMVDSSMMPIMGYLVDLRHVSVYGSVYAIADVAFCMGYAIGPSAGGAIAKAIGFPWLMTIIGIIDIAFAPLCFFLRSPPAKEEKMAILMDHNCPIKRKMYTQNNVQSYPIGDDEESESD
structure (smiles),measurement,setting,value
COc1cc2c(cc1OCCCF)CCN1CC(CC(C)C)C(O)CC21 (racemic) [[^18F]6b],regional labeling in presence of 1 μM (±)TBZ,VMAT2 [1],completely eliminated
COc1cc2c(cc1OCCCF)CCN1CC(CC(C)C)C(O)CC21 (stereo not drawn) [FP-(+)-DTBZ],pKi,VMAT2 [2],10.00
same,uptake in diabetic mice,[3],reduced
"COc1cc2c(cc1OC)C1CC(O)C(CC(C)C)CN1CC2 (stereo not shown) [[^3H]dihydro-TBZ, 2-hydroxy-3-(2-methylpropyl)-9,10-dimethoxy-1,3,4,6,7,11b-hexahydro-2H-benzo[a]quinolizine]",pKd,monoamine transporter,8.05 to 8.70
COc1cc2c(cc1OCC[18F])CCN1CC(CC(C)C)C(O)CC21 (racemic) [[^18F]6a],logD at 3 min,[4],2.12
same,remaining in brain (brain washout),"[5]; 30 min p.i., normal mice",> 50%
same,brain uptake,"[5]; mice, iv, 2 min",4.66 % ID/g
same,ST/CB ratio,"[5]; mice, iv, time not stated",1.9
same,Organ distribution Blood,"[5]; normal mice, iv, 2 min",2.68 ± 0.37 % dose/g
same,Organ distribution Bone,"[5]; normal mice, iv, 2 min",2.07 ± 0.05 % dose/g
same,Organ distribution Brain,"[5]; normal mice, iv, 2 min",4.66 % dose/g and 4.66 ± 0.78 % dose/g
same,Organ distribution Heart,"[5]; normal mice, iv, 2 min",4.49 ± 0.85 % dose/g
same,Organ distribution Kidney,"[5]; normal mice, iv, 2 min",10.7 ± 3.06 % dose/g
same,Organ distribution Liver,"[5]; normal mice, iv, 2 min",18.2 ± 4.14 % dose/g
same,Organ distribution Lung,"[5]; normal mice, iv, 2 min",5.83 ± 1.25 % dose/g
same,Organ distribution Muscle,"[5]; normal mice, iv, 2 min",0.66 ± 0.10 % dose/g
same,Organ distribution Skin,"[5]; normal mice, iv, 2 min",0.91 ± 0.10 % dose/g
same,Organ distribution Spleen,"[5]; normal mice, iv, 2 min",8.11 ± 0.90 % dose/g
same,Ratio (vs CB) Cortex,"[5]; normal mice, iv, 2 min",1.06
same,Ratio (vs CB) Hippocampus,"[5]; normal mice, iv, 2 min",1.09
same,Ratio (vs CB) Striatum,"[5]; normal mice, iv, 2 min",1.23
same,Regional brain distribution Cerebellum (CB),"[5]; normal mice, iv, 2 min",4.42 ± 0.74 % dose/g
same,Regional brain distribution Cortex,"[5]; normal mice, iv, 2 min",4.70 ± 0.66 % dose/g
same,Regional brain distribution Hippocampus,"[5]; normal mice, iv, 2 min",4.84 ± 0.72 % dose/g
same,Regional brain distribution Striatum,"[5]; normal mice, iv, 2 min",5.46 ± 0.80 % dose/g
same,Organ distribution Blood,"[5]; normal mice, iv, 15 min",2.05 ± 0.17 % dose/g
same,Organ distribution Bone,"[5]; normal mice, iv, 15 min",2.40 ± 0.23 % dose/g
same,Organ distribution Brain,"[5]; normal mice, iv, 15 min",2.10 ± 0.25 % dose/g
same,Organ distribution Heart,"[5]; normal mice, iv, 15 min",1.99 ± 0.19 % dose/g
same,Organ distribution Kidney,"[5]; normal mice, iv, 15 min",5.51 ± 1.55 % dose/g
same,Organ distribution Liver,"[5]; normal mice, iv, 15 min",10.5 ± 1.48 % dose/g
same,Organ distribution Lung,"[5]; normal mice, iv, 15 min",2.96 ± 0.30 % dose/g
same,Organ distribution Muscle,"[5]; normal mice, iv, 15 min",1.01 ± 0.02 % dose/g
same,Organ distribution Skin,"[5]; normal mice, iv, 15 min",1.19 ± 0.03 % dose/g
same,Organ distribution Spleen,"[5]; normal mice, iv, 15 min",2.77 ± 0.33 % dose/g
same,Ratio (vs CB) Cortex,"[5]; normal mice, iv, 15 min",0.92
same,Ratio (vs CB) Hippocampus,"[5]; normal mice, iv, 15 min",1.18
same,Ratio (vs CB) Striatum,"[5]; normal mice, iv, 15 min",1.91
same,Regional brain distribution Cerebellum (CB),"[5]; normal mice, iv, 15 min",1.97 ± 0.22 % dose/g
same,Regional brain distribution Cortex,"[5]; normal mice, iv, 15 min",1.82 ± 0.19 % dose/g
same,Regional brain distribution Hippocampus,"[5]; normal mice, iv, 15 min",2.33 ± 0.30 % dose/g
same,Regional brain distribution Striatum,"[5]; normal mice, iv, 15 min",3.76 ± 0.51 % dose/g
same,Organ distribution Blood,"[5]; normal mice, iv, 30 min",2.27 ± 0.11 % dose/g
same,Organ distribution Bone,"[5]; normal mice, iv, 30 min",3.88 % dose/g and 3.88 ± 0.47 % dose/g
same,Organ distribution Brain,"[5]; normal mice, iv, 30 min",2.09 ± 0.09 % dose/g
same,Organ distribution Heart,"[5]; normal mice, iv, 30 min",2.14 ± 0.11 % dose/g
same,Organ distribution Kidney,"[5]; normal mice, iv, 30 min",4.18 ± 0.33 % dose/g
same,Organ distribution Liver,"[5]; normal mice, iv, 30 min",8.85 ± 1.34 % dose/g
same,Organ distribution Lung,"[5]; normal mice, iv, 30 min",2.83 ± 0.25 % dose/g
same,Organ distribution Muscle,"[5]; normal mice, iv, 30 min",1.52 ± 0.07 % dose/g
same,Organ distribution Skin,"[5]; normal mice, iv, 30 min",1.72 ± 0.11 % dose/g
same,Organ distribution Spleen,"[5]; normal mice, iv, 30 min",2.62 ± 0.20 % dose/g
same,Ratio (vs CB) Cortex,"[5]; normal mice, iv, 30 min",1.00
same,Ratio (vs CB) Hippocampus,"[5]; normal mice, iv, 30 min",1.03
same,Ratio (vs CB) Striatum,"[5]; normal mice, iv, 30 min",1.71
same,Regional brain distribution Cerebellum (CB),"[5]; normal mice, iv, 30 min",1.97 ± 0.14 % dose/g
same,Regional brain distribution Cortex,"[5]; normal mice, iv, 30 min",1.96 ± 0.14 % dose/g
same,Regional brain distribution Hippocampus,"[5]; normal mice, iv, 30 min",2.02 ± 0.10 % dose/g
same,Regional brain distribution Striatum,"[5]; normal mice, iv, 30 min",3.37 ± 0.06 % dose/g
same,Organ distribution Blood,"[5]; normal mice, iv, 1 hr",1.75 ± 0.16 % dose/g
same,Organ distribution Bone,"[5]; normal mice, iv, 1 hr",5.84 ± 1.42 % dose/g
same,Organ distribution Brain,"[5]; normal mice, iv, 1 hr",1.51 ± 0.20 % dose/g
same,Organ distribution Heart,"[5]; normal mice, iv, 1 hr",1.53 ± 0.15 % dose/g
same,Organ distribution Kidney,"[5]; normal mice, iv, 1 hr",2.27 ± 0.39 % dose/g
same,Organ distribution Liver,"[5]; normal mice, iv, 1 hr",3.88 ± 0.40 % dose/g
same,Organ distribution Lung,"[5]; normal mice, iv, 1 hr",1.74 ± 0.04 % dose/g
same,Organ distribution Muscle,"[5]; normal mice, iv, 1 hr",1.05 ± 0.03 % dose/g
same,Organ distribution Skin,"[5]; normal mice, iv, 1 hr",1.23 ± 0.06 % dose/g
same,Organ distribution Spleen,"[5]; normal mice, iv, 1 hr",1.56 ± 0.07 % dose/g
same,Ratio (vs CB) Cortex,"[5]; normal mice, iv, 1 hr",1.12
same,Ratio (vs CB) Hippocampus,"[5]; normal mice, iv, 1 hr",1.05
same,Ratio (vs CB) Striatum,"[5]; normal mice, iv, 1 hr",1.71
same,Regional brain distribution Cerebellum (CB),"[5]; normal mice, iv, 1 hr",1.85 ± 0.20 % dose/g
same,Regional brain distribution Cortex,"[5]; normal mice, iv, 1 hr",2.07 ± 0.42 % dose/g
same,Regional brain distribution Hippocampus,"[5]; normal mice, iv, 1 hr",1.95 ± 0.49 % dose/g
same,Regional brain distribution Striatum,"[5]; normal mice, iv, 1 hr",3.17 ± 0.79 % dose/g
same,Organ distribution Blood,"[5]; normal mice, iv, 2 hr",1.38 ± 0.20 % dose/g
same,Organ distribution Bone,"[5]; normal mice, iv, 2 hr",8.89 ± 0.75 % dose/g
same,Organ distribution Brain,"[5]; normal mice, iv, 2 hr",1.13 ± 0.10 % dose/g
same,Organ distribution Heart,"[5]; normal mice, iv, 2 hr",1.22 ± 0.13 % dose/g
same,Organ distribution Kidney,"[5]; normal mice, iv, 2 hr",1.40 ± 0.30 % dose/g
same,Organ distribution Liver,"[5]; normal mice, iv, 2 hr",3.36 ± 0.32 % dose/g
same,Organ distribution Lung,"[5]; normal mice, iv, 2 hr",1.29 ± 0.19 % dose/g
same,Organ distribution Muscle,"[5]; normal mice, iv, 2 hr",0.73 ± 0.13 % dose/g
same,Organ distribution Skin,"[5]; normal mice, iv, 2 hr",0.85 ± 0.10 % dose/g
same,Organ distribution Spleen,"[5]; normal mice, iv, 2 hr",1.06 ± 0.10 % dose/g
same,Ratio (vs CB) Cortex,"[5]; normal mice, iv, 2 hr",0.81
same,Ratio (vs CB) Hippocampus,"[5]; normal mice, iv, 2 hr",1.12
same,Ratio (vs CB) Striatum,"[5]; normal mice, iv, 2 hr",1.28
same,Regional brain distribution Cerebellum (CB),"[5]; normal mice, iv, 2 hr",1.09 ± 0.03 % dose/g
same,Regional brain distribution Cortex,"[5]; normal mice, iv, 2 hr",0.88 ± 0.21 % dose/g
same,Regional brain distribution Hippocampus,"[5]; normal mice, iv, 2 hr",1.22 ± 0.18 % dose/g
same,Regional brain distribution Striatum,"[5]; normal mice, iv, 2 hr",1.39 ± 0.03 % dose/g
same,pKd,VMAT2 [6],9.28
